Assay results reported in PMC10046961, “High-Throughput Screening Assay for Detecting Drug-Induced Changes in Synchronized Neuronal Oscillations and Potential Seizure Risk Based on Ca^2+ Fluorescence Measurements in Human Induced Pluripotent Stem Cell (hiPSC)-Derived Neuronal 2D and 3D Cultures” (Cells, 2023).
Read-outs that look alike come from different tables or passages of the source. Marks after values point to notes of the source that are not given here.

How the values were obtained:
[1] = test system: hiPSC-derived neurons co-cultured with human primary astrocytes in 3D; experiment: Ca2+ transient oscillation assay (FDSS), 3D spheroids; assay type: cell-based; details: 60 min
Description: (§1) In this study, we used cryopreserved excitatory neurons that were differentiated from human induced pluripotent stem cells (hiPSCs; Cat #: EX-SeV-CW50065) (Elixirgen Scientific, Inc., Baltimore, MD, USA). The hiPSCs used, namely, CW50065 were derived from a healthy person and distributed by the California Institute of Regenerative Medicine Human Induced Pluripotent Stem Cell Repository. Human iPSC-derived excitatory neurons were differentiated from CW50065 using a proprietary cocktail of differentiation-inducing factors called Quick-Neuron™ EX-SeV (Batch number: EX-SeV-CW50065-L; Elixirgen Scientific, Inc.), cryopreserved 3 days after differentiation induction and distributed. Human iPSC-derived excitatory neurons were recovered from cryopreservation and maintained essentially as instructed by the manufacturer.
(§2) Cryopreserved human primary astrocytes (#N7805100, Thermo Fisher Scientific, Waltham, MA, USA) were recovered as instructed by the manufacturer and seeded in a 10 cm dish at the density of 2,000,000 cells. The culture was maintained using the Human Astrocytes Kit (#N7805200, Thermo Fisher Scientific) for 12 days. Half of the culture medium was replaced with fresh medium every 2–3 days during the culture period. These astrocytes were harvested using StemPro™ Accutase™ Cell Dissociation Reagent (#A1110501, Thermo Fisher Scientific) when they reached confluency. These cells were cryopreserved in STEM-CELLBANKER® GMP grade (ZENOGEN PHARMA, Kohriyama, Fukushima Japan) at the density of 2,000,000 cells per vial as working stocks for co-culture with neurons in 2D and 3D conditions described below. After a working stock was recovered, astrocytes were directly mixed with hiPSC-derived neurons for plating without further expansion.
We used U-shaped-bottom 96-well plates (#174925, Thermo Fisher Scientific) without any prior coating to make a spheroid in each well. Neurons and astrocytes were seeded and maintained as described for 2D cultures, except for the following modifications. First, neurons and astrocytes were seeded in each well of the 96-well plates at the density of 8000 hiPSC neurons with 8000 human primary astrocytes (8000)/well (ratio 1:1). Second, when the differentiation of excitatory neurons was completed one week after seeding, cells were fed with BrainPhys^TM Neuronal Medium (#05793, […] Technologies, Vancouver, BC, Canada) supplemented with 2% SM1 Neuronal Supplement, 1% N2 Supplement-A, and 10% Neuron culture medium for 5 weeks.
Cells maintained as spheroids (3D) in the U-shaped-bottom 96-well plates were transferred into 384-well spheroid plates (#4516, Merck, Corning, NY, USA) with 25 µL of the culture medium. A Ca^2+-indicating dye solution including […] was prepared using the EarlyTox™ Cardiotoxicity Kit (#R8211, Molecular Devices, LLC, San Jose, CA, USA) according to the manufacturer. Then, the same volume of the dye solution was dispensed into each well.
(§3) Prior to the fluorescence measurements, all wells to be measured were treated with 0.04% dimethyl sulfoxide (DMSO) to stabilize the oscillation signal. The first recording started 10 min after the addition of DMSO for each plate for 20 min. The effects of the test compound were recorded again starting 60 min after the administration of compounds, for 20 min.
Twenty-five compounds (Table 1) were first dissolved in either DMSO (most compounds) or distilled water depending on the compound, and further diluted with PBS to produce stock solutions concentrated 10-fold. Then, 5 μL of each compound solution was injected into each well using an automatic pipetting robot (#4505, ASSIST PLUS pipetting robot, Integra Biosciences Corp., Hudson, NH, USA), so that the final concentration of each compound was 1-fold nominal in the well.

[2] = test system: hiPSC-derived neurons co-cultured with human primary astrocytes in 2D; experiment: Ca2+ transient oscillation assay (FDSS), 2D co-culture; assay type: cell-based; details: Homo sapiens, 1 h, 60 min
Description: as §1, §2
Live neurons (hiPSC neurons) and human primary astrocytes were recovered from cryopreservation as described above and seeded in each well of 384-well plates at the density of 10,000 cells (HiPSC-cortical neurons) and human primary astrocytes at 2500 cells (ratio 4:1). These co-cultures were maintained under the medium conditions recommended by the manufacturer, namely Medium N(G2P), to complete the differentiation of excitatory neurons for the first week. […] Half of the culture medium was replaced with fresh medium every 3–4 days during the culture period.
After the incubation, the culture medium containing Cal-520 was replaced with 50 μL of HBSS supplemented with 0.1 mM MgCl2, 2 mM CaCl2, 10 mM HEPES, and 10 mM glucose and incubated at 37 ℃ for 15 min.
as §3
Twenty-five compounds (Table 1) were first dissolved in either DMSO (most compounds) or distilled water depending on the compound, and further diluted with PBS to produce stock solutions concentrated 10-fold. […] The final concentration of DMSO was adjusted to 0.1%. Changes in the fluorescence intensity (FI) produced by Ca^2+ flux were measured at 37 °C for all wells of a 384-well plate simultaneously using the FDSS/µCell system (#C13299, Hamamatsu Photonics, Hamamatsu, Shizuoka, Japan). The excitation and the emission wavelengths were 470 nm and 540 nm, respectively. The recording duration was 20 min with a sampling frequency of 2 Hz for cells cultured under 2D conditions and 10 Hz for cells cultured under 3D conditions.

[3] = read-out: Area under the curve - 2D Mean
[4] = read-out: Peak amplitude - 2D Mean
[5] = read-out: Peak-to-peak interval - 2D Mean

With C[C@]12N[C@H](Cc3ccccc31)c1ccccc12 [MK-801, Dizocilpine] the “Area under the curve - 3D Mean” value ([1]; 0.11 µM) was 127.3 % change from baseline, the “Peak Number—3D Mean” value ([1]; 0.11 µM) was −49.1 * % change from baseline and the “Peak amplitude - 3D Mean” value ([1]; 0.11 µM) was 104.7 % change from baseline. The “Peak width - 3D Mean” value ([1]; 0.11 µM) was 8.0 % change from baseline, the “Peak-to-peak interval - 3D Mean” value ([1]; 0.11 µM) was 76.1 % change from baseline and the “Area under the curve - 3D Mean” value ([1]; 0.33 µM) was 66.6 % change from baseline. For the same compound, the “Peak Number—3D Mean” value ([1]; 0.33 µM) was −67.3 ** % change from baseline, the “Peak amplitude - 3D Mean” value ([1]; 0.33 µM) was 76.2 % change from baseline and the “Peak width - 3D Mean” value ([1]; 0.33 µM) was −29.3 % change from baseline. For the same compound, the “Peak-to-peak interval - 3D Mean” value ([1]; 0.33 µM) was 66.4 % change from baseline, the “Area under the curve - 3D Mean” value ([1]; 1 µM) was -66.9 % change from baseline and the “Peak Number—3D Mean” value ([1]; 1 µM) was −97.2 ** % change from baseline. The “Peak amplitude - 3D Mean” value ([1]; 1 µM) was −64.1 % change from baseline, the “Peak width - 3D Mean” value ([1]; 1 µM) was −85.8 % change from baseline and the “Peak-to-peak interval - 3D Mean” value ([1]; 1 µM) was −100.0 % change from baseline. The “Area under the curve - 3D Mean” value ([1]; 3 µM) was 41.0 % change from baseline, the “Peak Number—3D Mean” value ([1]; 3 µM) was −84.8 ** % change from baseline and the “Peak amplitude - 3D Mean” value ([1]; 3 µM) was 67.2 % change from baseline. The “Peak width - 3D Mean” value ([1]; 3 µM) was −36.8 % change from baseline, the “Peak-to-peak interval - 3D Mean” value ([1]; 3 µM) was −100.0 % change from baseline and the activation at 0.11 µM [2, 3] was -35.7%. For the same compound, the activation at 0.11 µM ([2]; read-out: Peak Number—2D Mean) was -82.8%, the activation at 0.11 µM [2, 4] was -41.8% and the activation at 0.11 µM ([2]; read-out: Peak width - 2D Mean) was -3.2%. For the same compound, the activation at 0.11 µM [2, 5] was 204%, the activation at 0.33 µM [2, 3] was -57% and the activation at 0.33 µM ([2]; read-out: Peak Number—2D Mean) was -90.4%. The activation at 0.33 µM [2, 4] was -63.6%, the activation at 0.33 µM ([2]; read-out: Peak width - 2D Mean) was -23.6% and the activation at 0.33 µM [2, 5] was 3.6%. For the same compound, the activation at 1 µM [2, 3] was -57.4%, the activation at 1 µM ([2]; read-out: Peak Number—2D Mean) was -84.6% and the activation at 1 µM [2, 4] was -58.6%. It also gave an activation at 1 µM ([2]; read-out: Peak width - 2D Mean) of -32.8%, an activation at 1 µM [2, 5] of -57.4% and an activation at 3 µM [2, 3] of -79.8%. For the same compound, the activation at 3 µM ([2]; read-out: Peak Number—2D Mean) was -96.3%, the activation at 3 µM [2, 4] was -79.7% and the activation at 3 µM ([2]; read-out: Peak width - 2D Mean) was -70%. For the same compound, the activation at 3 µM [2, 5] was -100%.
